Data from patent US6489318B1, “Ethylidene derivatives of tricyclic carbapenems” (LEK, tovarna farmacevtskih in kemicnih izdelkov, d.d., priority 1996, dated 2002).

Tested on: β-lactamase of Escherichia coli 3.5.2.6
Assay: Hydrolysis of nitrocefin with β-lactamase in the presence of inhibitors (spectrophotometric, 495 nm)
Format: biochemical
Details: substrate nitrocefin 190 μmole/l; inhibitor 10 μmole/l
Experimental: Determination of inhibitory action of the compounds of the formula I upon the enzyme β-lactamase
The inhibitory action of the compounds of the formula I was determined according to standard methodology (Bush, K. and Sykes, R. B. Methods of Enzymatic Analysis, Third Edition, Vol. 4, p. 280, Verlag Chemie GmbH, Weinheim, 1984). The method comprises a spectrophotometric quantitative (band at 495 nm) measurement of catalytic action of the enzyme β-lactamase from the E. coli EC 3.5.2.6 strain. As a substrate nitrocefin ((7R)-3-((E)-2,4-dinitrostiryl)-7-(2-thienylacetamido)-3-cefem-4-carboxylic acid) was used which has the broadest spectrum of susceptibility and sensibility. The hydrolysis of nitrocefin in the presence of an inhibitor of the enzyme β-lactamase was determined.
Hydrolysis of nitrocefin with β-lactamase of Escherichia coli 3.5.2.6 in the presence of inhibitors

Row | Structure (SMILES) | Inhibitory activity (%)
1 | C/C=C1/C(=O)N2C(C(=O)[O-])=C3CCCC[C@@H]3[C@H]12.[Na+] [compound B, sodium (8S,9R)-10-((E)-ethylidene)-11-oxo-1-azatricyclo[7.2.0.0^3,8]undec-2-ene-2-carboxylate] | 23%
2 | CC1(C)[C@H](C(=O)O)N2C(=O)C[C@H]2S1(=O)=O [sulbactam, reference compound] | 50%
3 | C/C=C1/C(=O)N2C(C(=O)O)=C3CCSC[C@H]3[C@H]12 [compound A, sodium (8R,9R)-10-((E)-ethylidene)-11-oxo-1-aza-6-thiatricyclo[7.2.0.0^3,8]undec-2-ene-2-carboxylate] | 38%
